# Values quoted from earlier work in patent publication US20170020882A1, “ANTIVIRAL FORMULATION” (MEDA PHARMA SARL, priority 2008, published 2017).
# Assays:
# [1] = human, in vivo
# cold sore lesions = conditions: human, in vivo
SMILES,frequency of aborted lesions [1] [%],reduction in healing time (cold sore lesions) [days],reduction of time to loss of pain (cold sore lesions) [days]
CC(=O)OCC(CCn1cnc2cnc(N)nc21)COC(C)=O [famciclovir],8,–,–
Nc1nc2c(ncn2CCC(CO)CO)c(=O)[nH]1 [penciclovir],–,0.7,0.6
